Experimental data: ChEMBL document CHEMBL1201862, “PubChem BioAssay data set” (2004)
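Where inhibition never reached the appropriate level, the endpoint shown equals the highest concentration tested. Otherwise, values were interpolated linearly from a five-concentration, 48-hour dose response in 96-well plates. GI50 is the concentration that inhibits growth by half.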 Activity calls are given as the source filed them. Rule as the data show it: active = GI50 up to about 1.1 µM and inactive = higher.

What was measured:
Experiment in all cases: DTP human tumour cell line panel, 48 h
UO-31 = system: UO-31
COLO 205 = system: COLO 205
KM12 = system: KM12
BT-549 = system: BT-549
OVCAR-4 = system: OVCAR-4
NCI-H522 = system: NCI-H522
MCF7 = system: MCF7
LXFL 529 = system: LXFL 529
HCT-116 = system: HCT-116
SN12C = system: SN12C
SF-295 = system: SF-295
RXF 393 = system: RXF 393
HCC 2998 = system: HCC 2998
DU-145 = system: DU-145
SK-MEL-5 = system: SK-MEL-5
SK-MEL-28 = system: SK-MEL-28
HCT-15 = system: HCT-15
HOP-62 = system: HOP-62
CCRF-CEM = system: CCRF-CEM
Malme-3M = system: Malme-3M

Compound	GI50 (UO-31)	GI50 (COLO 205)	GI50 (KM12)	GI50 (BT-549)	GI50 (OVCAR-4)	GI50 (NCI-H522)	GI50 (MCF7)	GI50 (LXFL 529)	GI50 (HCT-116)	GI50 (SN12C)	GI50 (SF-295)	GI50 (RXF 393)	GI50 (HCC 2998)	GI50 (DU-145)	GI50 (SK-MEL-5)	GI50 (SK-MEL-28)	GI50 (HCT-15) [µM]	GI50 (HOP-62)	GI50 (CCRF-CEM)	GI50 (Malme-3M)
O=C1C=C(NCCc2ccccc2)c2ccccc2C1=O	3.72 µM (inactive)	1.83 µM (inactive)	2.63 µM (inactive)	2.23 µM (inactive)	3.93 µM (inactive)	1.71 µM (inactive)	1.67 µM (inactive)	5.86 µM (inactive)	4.95 µM (inactive)	1.85 µM (inactive)	1.98 µM (inactive)	6.65 µM (inactive)	1.79 µM (inactive)	1.75 µM (inactive)	1.09 µM (active)	1.87 µM (inactive)	1.67	2.55 µM (inactive)	12.3 µM (inactive)	1.06 µM (active)
COC1N(C2CC(O)C(CO)O2)C(=O)NC(=O)C1(F)Br (stereo unspecified)	10.3 µM (inactive)	21.6 µM (inactive)	21.6 µM (inactive)	25 µM (inactive)	> 50 µM (inactive)	49.1 µM (inactive)	0.52 µM (active)	24.4 µM (inactive)	7.8 µM (inactive)	9.25 µM (inactive)	2.83 µM (inactive)	46.7 µM (inactive)	0.887 µM (active)	4.72 µM (inactive)	7.66 µM (inactive)	9.86 µM (inactive)	13.4	1.45 µM (inactive)	3.53 µM (inactive)	15.1 µM (inactive)
Nc1ncc(CN2CCCC2)c(-c2ccccc2O)n1	> 750 µM (inactive)	> 750 µM (inactive)	> 750 µM (inactive)	–	> 750 µM (inactive)	> 750 µM (inactive)	> 100 µM (inactive)	> 750 µM (inactive)	> 750 µM (inactive)	> 750 µM (inactive)	> 750 µM (inactive)	> 750 µM (inactive)	> 750 µM (inactive)	–	> 750 µM (inactive)	> 750 µM (inactive)	> 750	> 750 µM (inactive)	8.39 µM (inactive)	> 750 µM (inactive)
Cc1cc(-c2c(F)cc3c4nn([C@H]5CC[C@@H](N(C)C)CC5)c(=O)c-4cn(C4CC4)c3c2F)cc(C)n1	1.59 µM (inactive)	0.208 µM (active)	0.313 µM (active)	0.479 µM (active)	3.36 µM (inactive)	0.169 µM (active)	0.0728 µM (active)	0.0528 µM (active)	0.16 µM (active)	0.168 µM (active)	0.169 µM (active)	0.43 µM (active)	0.29 µM (active)	0.416 µM (active)	0.289 µM (active)	0.687 µM (active)	1.74	0.097 µM (active)	0.0452 µM (active)	0.38 µM (active)
C=CCc1cc(-c2cc(CC=C)c(O)c(CN(CC)CC)c2)cc(CN(CC)CC)c1O	15.2 µM (inactive)	26.3 µM (inactive)	43.3 µM (inactive)	> 49.2 µM (inactive)	> 100 µM (inactive)	20.6 µM (inactive)	58.5 µM (inactive)	46.6 µM (inactive)	22 µM (inactive)	85.1 µM (inactive)	33 µM (inactive)	21.4 µM (inactive)	29 µM (inactive)	> 100 µM (inactive)	11.1 µM (inactive)	28.6 µM (inactive)	15.8	47.4 µM (inactive)	28.6 µM (inactive)	16.8 µM (inactive)
CC(C)C12C=CC(C)(CC1)n1c(=O)c3cc4ccccc4cc3c(=O)n12 (stereo unspecified)	24.9 µM (inactive)	41.9 µM (inactive)	50.8 µM (inactive)	–	43.9 µM (inactive)	29.3 µM (inactive)	–	34 µM (inactive)	47.2 µM (inactive)	34.7 µM (inactive)	73.5 µM (inactive)	> 100 µM (inactive)	33.7 µM (inactive)	–	32 µM (inactive)	> 100 µM (inactive)	33.3	> 100 µM (inactive)	43.1 µM (inactive)	42.9 µM (inactive)
CCCCCCCCCCCCCCCC(=O)OCC1OC(n2cc(F)c(=O)[nH]c2=O)C(NC(=O)N(CCCl)N=O)C(O)C1O (stereo unspecified)	12.3 µM (inactive)	4.41 µM (inactive)	1.86 µM (inactive)	–	7.96 µM (inactive)	5.15 µM (inactive)	–	5.3 µM (inactive)	1.22 µM (inactive)	2.07 µM (inactive)	0.156 µM (active)	2.38 µM (inactive)	2.71 µM (inactive)	–	3.94 µM (inactive)	2.37 µM (inactive)	4.95	0.354 µM (active)	0.611 µM (active)	4.47 µM (inactive)
CC(=O)O[C@H]1C(=O)[C@@]2(C)[C@H]([C@H](OC(=O)c3ccccc3)[C@]3(O)C[C@H](OC(=O)[C@H](O)[C@@H](NC(=O)c4ccccc4)c4ccccc4)C(C)=C1C3(C)C)[C@]1(OC(C)=O)CO[C@@H]1C[C@@H]2O [PACLITAXEL]	1.09 µM (active)	0.00303 µM (active)	–	0.0327 µM (active)	0.486 µM (active)	0.00464 µM (active)	0.00292 µM (active)	0.528 µM (active)	0.00268 µM (active)	0.00481 µM (active)	–	0.00649 µM (active)	0.00341 µM (active)	0.0239 µM (active)	0.00388 µM (active)	–	–	0.0129 µM (active)	0.00267 µM (active)	0.029 µM (active)
O=C(NC12CC3CC(CC(C3)C1)C2)C(=O)c1c[nH]c2ccc([N+](=O)[O-])cc12	> 47.2 µM (inactive)	24.5 µM (inactive)	33.7 µM (inactive)	–	7.59 µM (inactive)	25.2 µM (inactive)	–	20.2 µM (inactive)	18.7 µM (inactive)	31 µM (inactive)	6.18 µM (inactive)	21.1 µM (inactive)	> 100 µM (inactive)	–	30.3 µM (inactive)	85.1 µM (inactive)	> 78.9	17.1 µM (inactive)	> 44.9 µM (inactive)	24.7 µM (inactive)
CSC(=N\c1ccccc1)/N=C(\SCc1ccccc1)N(C)C	1.46 µM (inactive)	0.407 µM (active)	0.48 µM (active)	1.42 µM (inactive)	0.889 µM (active)	0.21 µM (active)	0.278 µM (active)	0.454 µM (active)	0.292 µM (active)	1.02 µM (active)	1.43 µM (inactive)	0.989 µM (active)	0.359 µM (active)	0.9 µM (active)	1.47 µM (inactive)	0.581 µM (active)	0.463	1.7 µM (inactive)	0.27 µM (active)	1.14 µM (inactive)
O=c1[nH]cc(OCC(F)(F)F)c(=O)[nH]1	> 100 µM (inactive)	> 100 µM (inactive)	> 100 µM (inactive)	–	> 100 µM (inactive)	> 100 µM (inactive)	–	> 100 µM (inactive)	> 100 µM (inactive)	> 100 µM (inactive)	> 100 µM (inactive)	> 100 µM (inactive)	> 100 µM (inactive)	–	> 100 µM (inactive)	> 100 µM (inactive)	> 100	> 100 µM (inactive)	> 100 µM (inactive)	> 100 µM (inactive)
COc1ccc(C2C(C)C(=O)C(C)C(c3ccc(OC)cc3)N2N=O)cc1 (stereo unspecified)	495 µM (inactive)	> 550 µM (inactive)	> 678 µM (inactive)	–	> 479 µM (inactive)	> 427 µM (inactive)	372 µM (inactive)	> 750 µM (inactive)	127 µM (inactive)	530 µM (inactive)	126 µM (inactive)	40.3 µM (inactive)	> 750 µM (inactive)	213 µM (inactive)	> 575 µM (inactive)	> 640 µM (inactive)	> 1000	87.1 µM (inactive)	> 700 µM (inactive)	> 537 µM (inactive)
Cc1cnc(NCCCN(C)C)c2c1[nH]c1ccc3cc(O)ccc3c12	2.03 µM (inactive)	0.244 µM (active)	1.39 µM (inactive)	1.52 µM (inactive)	0.282 µM (active)	0.129 µM (active)	0.308 µM (active)	0.142 µM (active)	0.236 µM (active)	0.244 µM (active)	0.7 µM (active)	0.667 µM (active)	0.326 µM (active)	1.29 µM (inactive)	0.815 µM (active)	1.39 µM (inactive)	4.63	0.267 µM (active)	1.01 µM (active)	0.879 µM (active)
